# Columns and labels:
# [1] = molecular target: mutated isocitrate dehydrogenase (mIDH) protein, LN229 R132H cells (Homo sapiens (Human), UniProt O75874, R132H); test: Mutant IDH1 cellular assay (2-HG in medium of LN229 R132H cells); assay type: cell-based; details: 2-HG levels in medium, 24 hours
# Protocol: Mutant IDH1 Cellular Assay
# They were harvested by trypsin and seeded into 96-well plates. Cells were incubated overnight at 37° C. in 5% CO2. The next day test compounds were added to each cell well. The final concentration of DMSO was 0.1% and DMSO controls were included. The plates were then placed in an incubator for 24 hours.
# 2-HG was measured according to Balss et al. (Acta Neuropathol (2012) 124: 883-891). Briefly, HClO4 was added to each well and the plates were centrifuged. Aliquots are removed and incubated with hydroxyglutarate dehydrogenase (HGDH), diaphorase, NAD+, and resazurin. The conversion of resazurin to resorufin was detected by fluorescence spectroscopy at Ex 540 nm Em 600 nm. The increase in fluorescence is proportional to 2-HG production. IC50 values are determined by interpolation from plots of relative fluorescence vs inhibitor concentration.
# IDH1 R132H enzyme = IDH1 R132H enzyme (Homo sapiens (Human), UniProt O75874, R132H); test: Mutant IDH1 R132H biochemical assay; details: NADPH consumption, luminescent readout; 1.5 nM enzyme, 1 μM NADPH, 250 μM α-KG, 30 minutes, 32° C.
# Protocol: NADPH consumption was measured by luminescent readout. […] The final DMSO concentration was 2.4%. […] Luminescence was measured on a luminescent reader (10 seconds measuring time, 1 second integration period, 30% sensitivity). The decrease in luminescence is proportional to mIDH1 activity. IC50 values are determined by interpolation from plots of relative luminescence versus inhibitor concentration.
# mutated isocitrate dehydrogenase (mIDH) protein, LN229 R132H cells, sequence (O75874 whole entry R132H): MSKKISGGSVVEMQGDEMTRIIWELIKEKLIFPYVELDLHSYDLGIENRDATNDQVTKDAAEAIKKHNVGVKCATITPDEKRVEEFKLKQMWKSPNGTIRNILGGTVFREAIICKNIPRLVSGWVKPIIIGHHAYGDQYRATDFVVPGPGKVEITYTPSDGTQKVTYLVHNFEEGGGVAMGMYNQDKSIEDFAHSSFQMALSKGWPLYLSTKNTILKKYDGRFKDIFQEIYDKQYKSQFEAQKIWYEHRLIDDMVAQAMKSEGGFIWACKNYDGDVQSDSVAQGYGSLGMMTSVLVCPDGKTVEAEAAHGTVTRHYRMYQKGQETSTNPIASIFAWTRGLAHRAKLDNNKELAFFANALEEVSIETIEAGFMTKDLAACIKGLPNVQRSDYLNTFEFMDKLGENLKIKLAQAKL
# IDH1 R132H enzyme, sequence (O75874 whole entry R132H): as above
SMILES,IC50 [1],IC50 (IDH1 R132H enzyme)
CC(C)Oc1cc2c(cc1C(=O)O)nc(Cc1ccc(OC(F)(F)F)cc1)n2[C@@H]1C[C@H](C)CC(C)(C)C1 (stereo in doubt) [Example 2-46-1],600 nM,120 nM
Cc1cc2c(cc1C(=O)O)nc(Cc1ccc(OC(F)(F)F)cc1)n2[C@@H]1C[C@H](C)CC(C)(C)C1 (stereo in doubt) [Example 2-44],170 nM,70 nM
Cc1cc2c(cc1C(=O)O)nc(Cc1ccc(OC(F)(F)F)cc1)n2[C@H]1C[C@@H](C)CC(C)(C)C1 (stereo in doubt) [Example 2-44-2],2600 nM,130 nM
C[C@H]1C[C@@H](n2c(Cc3ccc(C(C)(C)C)cc3)nc3cc(C(=O)O)ccc32)CC(C)(C)C1 (stereo in doubt) [Example 2-37],2500 nM,50 nM
CC(C)Oc1ccc(Cc2nc3cc(C(=O)O)ccc3n2[C@@H]2C[C@H](C)CC(C)(C)C2)cc1 (stereo in doubt) [Example 2-32],2700 nM,250 nM
CC(C)Oc1ccc(Cc2nc3cc(C(=O)O)ccc3n2[C@H]2C[C@@H](C)CC(C)(C)C2)cc1 (stereo in doubt) [Example 2-32-2],2500 nM,300 nM
COc1cc2c(cc1CCC(=O)O)nc(Cc1ccc(OC(F)(F)F)cc1)n2[C@H]1C[C@@H](C)CC(C)(C)C1 (stereo in doubt) [Example 2-50-2],380 nM,20 nM
"COC(=O)c1cc2nc(Cc3ccc(OC(F)(F)F)cc3)n([C@H]3C[C@@H](C)CC(C)(C)C3)c2cc1OC(C)C (racemic) [Example 2-20, (±) methyl 6-(propan-2-yloxy)-2[4-(trifluoromethoxy)benzyl]-1-[(cis)-3,3,5-trimethylcyclohexyl]-1H-benzimidazole-5-carboxylate]",–,2800 nM
"COC(=O)c1ccc2c(c1)nc(C(C)c1ccc(OC(F)(F)F)cc1)n2[C@H]1C[C@@H](C)CC(C)(C)C1 (single isomer, unassigned) [Reference compound 2-4-3, methyl 2-{1-[4-(trifluoromethoxy)phenyl]ethyl}-1-[(cis)-3,3,5-trimethylcyclohexyl]-1H-benzimidazole-5-carboxylate, reference compound]",–,5000 nM
"COC(=O)c1ccc2c(c1)nc(Cc1ccc(OC(F)(F)F)cc1)n2[C@H]1C[C@@H](C)CC(C)(C)C1 (racemic) [Example 2-3, (±) methyl 2-[4-(trifluoromethoxy)benzyl]-1-[(cis)-3,3,5-trimethylcyclohexyl]-1H-benzimidazole-5-carboxylate]",–,670 nM
Cc1nc(-c2ccccc2)sc1Cc1nc2cc(C(=O)O)ccc2n1[C@@H]1C[C@H](C)CC(C)(C)C1 (stereo in doubt) [Example 2-41],–,2300 nM
"COC(=O)c1ccc2c(c1)nc(C(C)c1ccc(OC(F)(F)F)cc1)n2[C@H]1C[C@@H](C)CC(C)(C)C1 (single isomer, unassigned) [Reference compound 2-4-2, methyl 2-{1-[4-(trifluoromethoxy)phenyl]ethyl}-1-[(cis)-3,3,5-trimethylcyclohexyl]-1H-benzimidazole-5-carboxylate, reference compound]",–,> 10000 nM
"COC(=O)c1ccc2c(c1)nc(Cc1ccc(C)cc1)n2[C@H]1C[C@@H](C)CC(C)(C)C1 (racemic) [Example 2-10, (±) methyl 2-(4-methylbenzyl)-1-[(cis)-3,3,5-trimethylcyclohexyl]-1H-benzimidazole-5-carboxylate]",–,1500 nM
"CC(C)c1ccc(Cc2nc3cc(C#N)ccc3n2[C@H]2C[C@@H](C)CC(C)(C)C2)cc1 (racemic) [Example 2-25, (±) 2-[4-(propan-2-yl)benzyl]-1-[(cis)-3,3,5-trimethylcyclohexyl]-1H-benzimidazole-5-carbonitrile]",–,350 nM
Cc1ccc(Cc2nc3cc(C(=O)O)ccc3n2[C@@H]2C[C@H](C)CC(C)(C)C2)cc1 (stereo in doubt) [Example 2-36],–,580 nM
"COC(=O)c1ccc2c(c1)nc(-c1ccc(OC(F)(F)F)cc1)n2[C@H]1C[C@@H](C)CC(C)(C)C1 (single isomer, unassigned) [Example 2-1-2, methyl 2-[4-(trifluoromethoxy)phenyl]-1-[(cis)-3,3,5-trimethylcyclohexyl]-1H-benzimidazole-5-carboxylate]",–,5700 nM
C[C@H]1C[C@@H](n2c(Cc3ccc(OC(F)(F)F)cc3)nc3cc(C(=O)O)c(OCC(F)(F)F)cc32)CC(C)(C)C1 (stereo in doubt) [Example 2-47-1],–,2000 nM

SMILES,IC50 [1],IC50 (IDH1 R132H enzyme)
C[C@H]1C[C@@H](n2c(Cc3cn(C)c4ccccc34)nc3cc(C(=O)O)ccc32)CC(C)(C)C1 (stereo in doubt) [Example 2-43],–,6600 nM
C[C@@H]1C[C@H](n2c(Cc3ccc(OC(F)(F)F)cc3)nc3cc(C(=O)O)c(OCC(F)(F)F)cc32)CC(C)(C)C1 (stereo in doubt) [Example 2-47-2],–,650 nM
C[C@H]1C[C@@H](n2c(C(C)(C)c3ccc(OC(F)(F)F)cc3)nc3cc(C(=O)O)ccc32)CC(C)(C)C1 (stereo in doubt) [Example 2-31],–,3800 nM
"COC(=O)c1ccc2c(c1)nc(Cc1cccc(OC(F)(F)F)c1)n2[C@H]1C[C@@H](C)CC(C)(C)C1 (racemic) [Example 2-14, (±) methyl 2-[3-(trifluoromethoxy)benzyl]-1-[(cis)-3,3,5-trimethylcyclohexyl]-1H-benzimidazole-5-carboxylate]",–,10000 nM
CC(C)Oc1cc2c(cc1C(=O)O)nc(Cc1ccc(OC(F)(F)F)cc1)n2[C@H]1C[C@@H](C)CC(C)(C)C1 (stereo in doubt) [Example 2-46-2],–,500 nM
"COC(=O)c1ccc2c(nc(Cc3ccc(OC(F)(F)F)cc3)n2C2CC(C)(C)CC(C)(C)C2)c1F [Example 2-22, methyl 4-fluoro-1-(3,3,5,5-tetramethylcyclohexyl)-2-[4-(trifluoromethoxy)benzyl]-1H-benzimidazole-5-carboxylate]",–,800 nM
"COC(=O)c1ccc2c(c1)nc(Cc1ccccc1OC(F)(F)F)n2[C@@H]1C[C@H](C)CC(C)(C)C1 (racemic) [Example 2-13, (± methyl 2-[2-(trifluoromethoxy)benzyl]-1-[(cis)-3,3,5-trimethylcyclohexyl]-1H-benzimidazole-5-carboxylate]",–,10000 nM
"COC(=O)c1ccc2c(c1)nc(-c1ccc(OC(F)(F)F)cc1)n2[C@H]1C[C@@H](C)CC(C)(C)C1 (racemic) [Example 2-1, (±) methyl 2-[4-(trifluoromethoxy)phenyl]-1-[(cis)-3,3,5-trimethylcyclohexyl]-1H-benzimidazole-5-carboxylate]",–,9900 nM
"COC(=O)c1ccc2c(c1)nc(Cc1ccc(C(F)(F)F)cc1)n2[C@H]1C[C@@H](C)CC(C)(C)C1 (racemic) [Example 2-8, (±) methyl 2-[4-(trifluoromethyl)benzyl]-1-[(cis)-3,3,5-trimethylcyclohexyl]-1H-benzimidazole-5-carboxylate]",–,1500 nM
"CC(C)Oc1ccc(Cc2nc3cc(C#N)ccc3n2[C@H]2C[C@@H](C)CC(C)(C)C2)cc1 (racemic) [Example 2-24, (±) 2-[4-(propan-2-yloxy)benzyl]-1-[(cis)-3,3,5-trimethylcyclohexyl]-1H-benzimidazole-5-carbonitrile]",–,1500 nM
"C[C@@H]1C[C@H](n2c(Cc3ccc(C(F)(F)F)cc3)nc3cc(C#N)ccc32)CC(C)(C)C1 (racemic) [Example 2-26, (±) 2-[4-(trifluoromethyl)benzyl]-1-[(cis)-3,3,5-trimethylcyclohexyl]-1H-benzimidazole-5-carbonitrile]",–,700 nM
C[C@H]1C[C@@H](n2c(Cc3ccc(F)cc3)nc3cc(C(=O)O)ccc32)CC(C)(C)C1 (stereo in doubt) [Example 2-35],–,1300 nM
"COC(=O)c1ccc2c(c1)nc(C(C)c1ccc(OC(F)(F)F)cc1)n2[C@H]1C[C@@H](C)CC(C)(C)C1 (relative stereo) [Reference compound 2-4, methyl 2-{1-[4-(trifluoromethoxy)phenyl]ethyl}-1-[(cis)-3,3,5-trimethylcyclohexyl]-1H-benzimidazole-5-carboxylate, reference compound]",–,> 10000 nM
"COC(=O)c1ccc2c(c1)nc(C(C)(C)c1ccc(OC(F)(F)F)cc1)n2[C@H]1C[C@@H](C)CC(C)(C)C1 (racemic) [Reference compound 2-5, (±) methyl 2-{2-[4-(trifluoromethoxy)phenyl]propan-2-yl}-1-[(cis)-3,3,5-trimethylcyclohexyl]-1H-benzimidazole-5-carboxylate, reference compound]",–,> 10000 nM
"COC(=O)c1ccc2c(c1)nc(Cc1ccc(OC(C)C)cc1)n2[C@H]1C[C@@H](C)CC(C)(C)C1 (racemic) [Example 2-6, (±) methyl 2-[4-(propan-2-yloxy)benzyl]-1-[(cis)-3,3,5-trimethylcyclohexyl]-1H-benzimidazole-5-carboxylate]",–,1500 nM
"COC(=O)c1cc2nc(Cc3ccc(OC(F)(F)F)cc3)n([C@H]3C[C@@H](C)CC(C)(C)C3)c2cc1C (single isomer, unassigned) [Example 2-18-2, methyl 6-methyl-2[4-(trifluoromethoxy)benzyl]-1-[(cis)-3,3,5-trimethylcyclohexyl]-1H-benzimidazole-5-carboxylate]",–,1200 nM
